In one series the test system is C57BL/6J mice. The series can be described thus: Glucokinase activator in vivo screen (blood glucose after oral dosing). The note with it: oral gavage 50 mg/kg, two hour fast, blood glucose at 1, 2, 4 and 6 hours post dose. As for the experimental part: Glucokinase Activator In Vivo Screen Protocol
C57BL/6J mice are orally dosed via gavage with Glucokinase (GK) activator at 50 mg/kg body weight following a two hour fasting period. Blood glucose determinations are made five times during the six hour post-dose study period.
Mice (n=6) are weighed and fasted for a two hour period prior to oral treatment.
Consider `CS(=O)(=O)c1ccc(C(CC2CCOCC2)C(=O)Nc2cnc(Br)cn2)cc1Cl` (stereo not shown) [Example 21, N-(5-Bromo-pyrazin-2-yl)-2-(3-chloro-4-methanesulfonyl-phenyl)-3-(tetrahydro-pyran-4-yl)-propionamide], for which the “glucokinase activator in vivo activity when administered orally (decrease in blood glucose compared to vehicle)” value is on record as “excellent glucokinase activator in vivo activity”.

For `CS(=O)(=O)c1ccc(C(CC2CCOCC2)C(=O)Nc2cnc(/C(N)=N/O)cn2)cc1Cl` (stereo not shown) [Example 23], the “glucokinase activator in vivo activity when administered orally (decrease in blood glucose compared to vehicle)” value is on record as “excellent glucokinase activator in vivo activity”.

For the molecule `CS(=O)(=O)c1ccc(C(CC2CCC(=O)C2)C(=O)Nc2cnc(Br)cn2)cc1Cl` (stereo not shown) [Example 49, N-(5-Bromo-pyrazin-2-yl)-2-(3-chloro-4-methanesulfonyl-phenyl)-3-(3-oxo-cyclopentyl)-propionamide], the “glucokinase activator in vivo activity when administered orally (decrease in blood glucose compared to vehicle)” value is given as “excellent glucokinase activator in vivo activity”.

`CS(=O)(=O)c1ccc(C(CC2CC/C(=N/O)C2)C(=O)Nc2cnc(Br)cn2)cc1Cl` (stereo not shown) [Example 52, N-(5-Bromo-pyrazin-2-yl)-2-(3-chloro-4-methanesulfonyl-phenyl)-3-(3-hydroxyimino-cyclopentyl)-propionamide]: the “glucokinase activator in vivo activity when administered orally (decrease in blood glucose compared to vehicle)” value is “excellent glucokinase activator in vivo activity”.

As for `CO/N=C1/CCC(CC(C(=O)Nc2cnccn2)c2ccc(S(C)(=O)=O)c(Cl)c2)C1` (stereo not shown) [Example 54, 2-(3-Chloro-4-methanesulfonyl-phenyl)-3-(3-methoxyimino-cyclopentyl)-N-pyrazin-2-yl-propionamide], the “glucokinase activator in vivo activity when administered orally (decrease in blood glucose compared to vehicle)” value was “excellent glucokinase activator in vivo activity”.

Consider `CO/N=C1/CCC(CC(C(=O)Nc2cnc(Br)cn2)c2ccc(S(C)(=O)=O)c(Cl)c2)C1` (stereo not shown) [Example 55, N-(5-Bromo-pyrazin-2-yl)-2-(3-chloro-4-methanesulfonyl-phenyl)-3-(3-methoxyimino-cyclopentyl)-propionamide], for which the “glucokinase activator in vivo activity when administered orally (decrease in blood glucose compared to vehicle)” value is “excellent glucokinase activator in vivo activity”.

Take `CS(=O)(=O)c1ccc(C(CC2CCC(=O)CC2)C(=O)Nc2cnc(Br)cn2)cc1Cl` (stereo not shown) [Example 59, N-(5-Bromo-pyrazin-2-yl)-2-(3-chloro-4-methanesulfonyl-phenyl)-3-(4-oxo-cyclohexyl)-propionamide]: the “glucokinase activator in vivo activity when administered orally (decrease in blood glucose compared to vehicle)” value was “excellent glucokinase activator in vivo activity”.

As for `CS(=O)(=O)c1ccc([C@@H](CC2CCC(=O)CC2)C(=O)Nc2cnc(Br)cn2)cc1Cl` [Example 60, N-(5-Bromo-pyrazin-2-yl)-2(R)-(3-chloro-4-methanesulfonyl-phenyl)-3-(4-oxo-cyclohexyl)-propionamide], the “glucokinase activator in vivo activity when administered orally (decrease in blood glucose compared to vehicle)” value is listed as “excellent glucokinase activator in vivo activity”.

Regarding `CS(=O)(=O)c1ccc([C@@H](CC2CCC(=O)CC2)C(=O)Nc2cnc(Cl)cn2)cc1Cl` [Example 61, 2(R)-(3-Chloro-4-methanesulfonyl-phenyl)-N-(5-chloro-pyrazin-2-yl)-3-(4-oxo-cyclohexyl)-propionamide], the “glucokinase activator in vivo activity when administered orally (decrease in blood glucose compared to vehicle)” value is given as “excellent glucokinase activator in vivo activity”.

For `CS(=O)(=O)c1ccc(C(CC2CCC(=NO)CC2)C(=O)Nc2cnc(Br)cn2)cc1Cl` (stereo not shown) [Example 66, N-(5-Bromo-pyrazin-2-yl)-2-(3-chloro-4-methanesulfonyl-phenyl)-3-(4-hydroxyimino-cyclohexyl)-propionamide], the “glucokinase activator in vivo activity when administered orally (decrease in blood glucose compared to vehicle)” value is “excellent glucokinase activator in vivo activity”.

Regarding `CS(=O)(=O)c1ccc([C@@H](CC2CCC(=NO)CC2)C(=O)Nc2cnc(Br)cn2)cc1Cl` (stereo partly drawn) [Example 67, N-(5-Bromo-pyrazin-2-yl)-2(R)-(3-chloro-4-methanesulfonyl-phenyl)-3-(4-hydroxyimino-cyclohexyl)-propionamide], the “glucokinase activator in vivo activity when administered orally (decrease in blood glucose compared to vehicle)” value was “excellent glucokinase activator in vivo activity”.

Regarding `CS(=O)(=O)c1ccc([C@@H](CC2CCC(=NO)CC2)C(=O)Nc2cnc(Cl)cn2)cc1Cl` (stereo partly drawn) [Example 68, 2(R)-(3-Chloro-4-methanesulfonyl-phenyl)-N-(5-chloro-pyrazin-2-yl)-3-(4-hydroxyimino-cyclohexyl)-propionamide], the “glucokinase activator in vivo activity when administered orally (decrease in blood glucose compared to vehicle)” value was “excellent glucokinase activator in vivo activity”.

Tested on in a further series: not given
Experiment: not given
Settings: not given
For the molecule `O=C(Nc1nccs1)C(CC1CCCO1)c1ccc(Cl)c(Cl)c1` (stereo not shown) [Example 2, 2-(3,4-Dichloro-phenyl)-3-(tetrahydro-furan-2-yl)-N-thiazol-2-yl-propionamide], the melting point (as a rule, the temperature of the solid-liquid transition) lay within 69 to 71 °C.

`CNC(=O)NC(=O)C(CC1CCCCO1)c1ccc(Cl)c(Cl)c1` (stereo not shown) [Example 7, 1-[2-(3,4-Dichloro-phenyl)-3-(tetrahydro-pyran-2-yl)-propionyl]-3-methyl urea] yielded a melting point of 172.8 to 174.2 °C.

In turn, `CS(=O)(=O)c1ccc(C(CC2CCOCC2)C(=O)Nc2cnc(/C(N)=N/O)cn2)cc1Cl` (stereo not shown) [Example 23] registered a melting point of 137.2 to 140.5 °C.

Take `CNC(=O)NC(=O)C(CC1CCCC1O)c1ccc(Cl)c(Cl)c1` (stereo not shown) [Example 24, 1-[2-(3,4-Dichloro-phenyl)-3-(2-hydroxy-cyclopentyl)-propionyl]-3-methyl-urea]: the melting point was 62 to 64 °C.

On to `O=C(Nc1nccs1)C(CC1CCCC1O)c1ccc(Cl)c(Cl)c1` (stereo not shown) [Example 25, 2-(3,4-Dichloro-phenyl)-3-(2-hydroxy-cyclopentyl)-N-thiazol-2-yl-propionamide], for which the melting point was in the range of 86 to 88 °C.

`CS(=O)(=O)c1ccc(C(CC2CCCC2O)C(=O)Nc2nccs2)cc1` (stereo not shown) [Example 26, 3-(2-Hydroxy-cyclopentyl)-2-(4-methanesulfonyl-phenyl)-N-thiazol-2-yl-propionamide] registered a melting point of 205 to 206 °C.

As for `CNC(=O)NC(=O)C(CC1CCCC1=O)c1ccc(Cl)c(Cl)c1` (stereo not shown) [Example 27, 1-[2-(3,4-Dichloro-phenyl)-3-(2-oxo-cyclopentyl)-propionyl]-3-methyl-urea], the melting point was in the range of 63 to 65 °C.

In the case of `O=C1CCCC1CC(C(=O)Nc1nccs1)c1ccc(Cl)c(Cl)c1` (stereo not shown) [Example 28, 2-(3,4-Dichloro-phenyl)-3-(2-oxo-cyclopentyl)-N-thiazol-2-yl-propionamide], the melting point was 79 to 81 °C.

For the molecule `CS(=O)(=O)c1ccc(C(CC2CCCC2=O)C(=O)Nc2nccs2)cc1` (stereo not shown) [Example 29, 2-(4-Methanesulfonyl-phenyl)-3-(2-oxo-cyclopentyl)-N-thiazol-2-yl-propionamide], the melting point lay in the range of 228 to 230 °C.

`CO/N=C1/CCCC1CC(C(=O)Nc1cnccn1)c1ccc(S(C)(=O)=O)c(Cl)c1` (stereo not shown) [Example 33, 2-(3-Chloro-4-methanesulfonyl-phenyl)-3-(2-methoxyimino-cyclopentyl)-N-pyrazin-2-yl-propionamide] yielded a melting point of 74 to 76 °C.

In turn, `CNC(=O)NC(=O)C(CC1CCC(O)C1)c1ccc(Cl)c(Cl)c1` (stereo not shown) [Example 35, 1-[2-(3,4-Dichloro-phenyl)-3-(3-hydroxy-cyclopentyl)-propionyl]-3-methyl-urea] displayed a melting point of 82 to 84 °C.

The molecule `CS(=O)(=O)c1ccc(C(CC2CCC(O)C2)C(=O)Nc2nccs2)cc1` (stereo not shown) [Example 37, 3-(3-Hydroxy-cyclopentyl)-2-(4-methanesulfonyl-phenyl)-N-thiazol-2-yl-propionamide] yielded a melting point of 69 to 72 °C.

`CC(=O)OC1CCC(CC(C(=O)Nc2nccs2)c2ccc(Cl)c(Cl)c2)C1` (stereo not shown) [Example 40, Acetic acid 3-[2-(3,4-dichloro-phenyl)-2-(thiazol-2-ylcarbamoyl)-ethyl]-cyclopentyl ester] came in with a melting point of 49 to 52 °C.

In the case of `CNC(=O)NC(=O)C(CC1CCC(=O)C1)c1ccc(Cl)c(Cl)c1` (stereo not shown) [Example 42, 1-[2-(3,4-Dichloro-phenyl)-3-(3-oxo-cyclopentyl)-propionyl]-3-methyl-urea], the melting point was in the range of 70 to 74 °C.

Molecule `O=C1CCC(CC(C(=O)Nc2nccs2)c2ccc(Cl)c(Cl)c2)C1` (stereo not shown) [Example 43, 2-(3,4-Dichloro-phenyl)-3-(3-oxo-cyclopentyl)-N-thiazol-2-yl-propionamide] showed a melting point of 146 to 148 °C.

In the case of `CS(=O)(=O)c1ccc(C(CC2CCC(=O)C2)C(=O)Nc2nccs2)cc1` (stereo not shown) [Example 44, 2-(4-Methanesulfonyl-phenyl)-3-(3-oxo-cyclopentyl)-N-thiazol-2-yl-propionamide], the melting point lay in the range of 94 to 97 °C.

`CS(=O)(=O)c1ccc(C(CC2CCC(=O)C2)C(=O)Nc2cnc(Br)cn2)cc1Cl` (stereo not shown) [Example 49, N-(5-Bromo-pyrazin-2-yl)-2-(3-chloro-4-methanesulfonyl-phenyl)-3-(3-oxo-cyclopentyl)-propionamide]: the melting point lay in the range of 97 to 103 °C.

As to `O=C(Nc1nccs1)C(CC1CC/C(=N/O)C1)c1ccc(Cl)c(Cl)c1` (stereo not shown) [Example 50, 2-(3,4-Dichloro-phenyl)-3-(3-hydroxyimino-cyclopentyl)-N-thiazol-2-yl-propionamide], the melting point was in the range of 98 to 101 °C.

With `CS(=O)(=O)c1ccc(C(CC2CC/C(=N/O)C2)C(=O)Nc2cnccn2)cc1Cl` (stereo not shown) [Example 51, 2-(3-Chloro-4-methanesulfonyl-phenyl)-3-(3-hydroxyimino-cyclopentyl)-N-pyrazin-2-yl-propionamide], the melting point is 205 to 207 °C.

Molecule `CS(=O)(=O)c1ccc(C(CC2CC/C(=N/O)C2)C(=O)Nc2cnc(Br)cn2)cc1Cl` (stereo not shown) [Example 52, N-(5-Bromo-pyrazin-2-yl)-2-(3-chloro-4-methanesulfonyl-phenyl)-3-(3-hydroxyimino-cyclopentyl)-propionamide] yielded a melting point of 100 to 106 °C.

Consider `CO/N=C1/CCC(CC(C(=O)Nc2nccs2)c2ccc(Cl)c(Cl)c2)C1` (stereo not shown) [Example 53, 2-(3,4-Dichloro-phenyl)-3-(3-methoxyimino-cyclopentyl)-N-thiazol-2-yl-propionamide], for which the melting point lay in the range of 69 to 72 °C.

The molecule `CO/N=C1/CCC(CC(C(=O)Nc2cnccn2)c2ccc(S(C)(=O)=O)c(Cl)c2)C1` (stereo not shown) [Example 54, 2-(3-Chloro-4-methanesulfonyl-phenyl)-3-(3-methoxyimino-cyclopentyl)-N-pyrazin-2-yl-propionamide] had a melting point of 85 to 87 °C.

Turning to `CO/N=C1/CCC(CC(C(=O)Nc2cnc(Br)cn2)c2ccc(S(C)(=O)=O)c(Cl)c2)C1` (stereo not shown) [Example 55, N-(5-Bromo-pyrazin-2-yl)-2-(3-chloro-4-methanesulfonyl-phenyl)-3-(3-methoxyimino-cyclopentyl)-propionamide], the melting point lay in the range of 91 to 97 °C.

For `O=C(Nc1nccs1)C(CC1CCC(F)(F)C1)c1ccc(Cl)c(Cl)c1` (stereo not shown) [Example 56, 2-(3,4-Dichloro-phenyl)-3-(3,3-difluoro-cyclopentyl)-N-thiazol-2-yl-propionamide], the melting point is 154 to 156 °C.

`CC1(O)CCC(CC(C(=O)Nc2cnccn2)c2ccc(S(C)(=O)=O)c(Cl)c2)C1` (stereo not shown) [Example 57, 2-(3-Chloro-4-methanesulfonyl-phenyl)-3-(3-hydroxy-3-methyl-cyclopentyl)-N-pyrazin-2-yl-propionamide] gave a melting point of 78 to 84 °C.

Values taken from patent US7259166B2, “Substituted-cycloalkyl and oxygenated-cycloalkyl glucokinase activators” (Hoffmann-La Roche Inc., priority 2002, dated 2007).
